According to ChEMBL document CHEMBL1201862, “PubChem BioAssay data set” (2004):
Calls of active or inactive are those of the source.

Columns and labels:
[1] = molecular target: T1, Sentrin-specific protease 6 (Homo sapiens, UniProt Q9GZR1); format: functional;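 note: Luminescence-based dose-response confirmatory assay of SENP6 inhibition, following up an ultra-high-throughput screen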
T1 sequence (Q9GZR1 whole entry): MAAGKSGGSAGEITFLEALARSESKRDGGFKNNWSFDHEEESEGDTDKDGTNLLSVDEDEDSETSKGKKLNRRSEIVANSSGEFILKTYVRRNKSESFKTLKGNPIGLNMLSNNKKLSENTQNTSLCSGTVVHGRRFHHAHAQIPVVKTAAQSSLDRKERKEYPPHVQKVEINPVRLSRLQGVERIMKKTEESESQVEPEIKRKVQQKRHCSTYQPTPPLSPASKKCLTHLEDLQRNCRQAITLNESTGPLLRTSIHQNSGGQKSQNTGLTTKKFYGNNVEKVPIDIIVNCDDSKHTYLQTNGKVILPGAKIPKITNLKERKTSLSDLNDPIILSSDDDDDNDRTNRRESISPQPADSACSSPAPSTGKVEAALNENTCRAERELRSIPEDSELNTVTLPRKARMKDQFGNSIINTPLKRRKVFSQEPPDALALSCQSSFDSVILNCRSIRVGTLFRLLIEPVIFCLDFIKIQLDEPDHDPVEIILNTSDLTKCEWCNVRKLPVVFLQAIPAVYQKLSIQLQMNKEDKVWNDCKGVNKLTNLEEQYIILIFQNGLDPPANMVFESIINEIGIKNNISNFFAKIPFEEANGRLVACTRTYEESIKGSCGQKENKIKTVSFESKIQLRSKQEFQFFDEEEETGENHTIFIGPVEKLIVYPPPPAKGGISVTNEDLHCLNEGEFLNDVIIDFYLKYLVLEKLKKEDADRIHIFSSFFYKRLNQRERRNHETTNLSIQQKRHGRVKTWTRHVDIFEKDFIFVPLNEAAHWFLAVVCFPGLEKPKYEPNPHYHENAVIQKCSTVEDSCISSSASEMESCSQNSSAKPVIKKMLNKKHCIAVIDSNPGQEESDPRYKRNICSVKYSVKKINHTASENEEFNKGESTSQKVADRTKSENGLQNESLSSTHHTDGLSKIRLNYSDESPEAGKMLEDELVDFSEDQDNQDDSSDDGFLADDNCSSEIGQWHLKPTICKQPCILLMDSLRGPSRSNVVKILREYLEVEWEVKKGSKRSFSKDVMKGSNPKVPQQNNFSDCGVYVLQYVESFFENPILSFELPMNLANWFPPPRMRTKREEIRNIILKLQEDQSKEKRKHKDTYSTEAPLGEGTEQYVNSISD

[2] = molecular target: T2, Protein skinhead-1 (Caenorhabditis elegans, UniProt P34707); format: functional
T2 sequence (P34707 whole entry): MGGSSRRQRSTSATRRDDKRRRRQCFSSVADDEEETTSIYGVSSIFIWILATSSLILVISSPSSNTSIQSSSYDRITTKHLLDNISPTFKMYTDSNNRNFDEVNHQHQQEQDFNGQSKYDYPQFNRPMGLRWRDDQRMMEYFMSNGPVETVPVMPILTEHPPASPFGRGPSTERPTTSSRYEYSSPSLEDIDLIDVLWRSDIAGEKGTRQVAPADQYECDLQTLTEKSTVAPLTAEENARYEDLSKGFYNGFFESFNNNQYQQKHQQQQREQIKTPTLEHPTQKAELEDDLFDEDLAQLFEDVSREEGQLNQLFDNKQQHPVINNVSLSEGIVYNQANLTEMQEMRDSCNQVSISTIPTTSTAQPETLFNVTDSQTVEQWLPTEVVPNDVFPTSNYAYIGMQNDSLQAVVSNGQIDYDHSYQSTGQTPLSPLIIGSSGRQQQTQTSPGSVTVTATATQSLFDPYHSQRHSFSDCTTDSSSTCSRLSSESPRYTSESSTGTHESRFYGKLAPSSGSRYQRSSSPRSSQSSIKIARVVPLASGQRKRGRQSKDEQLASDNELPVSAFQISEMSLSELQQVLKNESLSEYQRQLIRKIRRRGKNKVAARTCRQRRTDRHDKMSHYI

[3] = molecular target: T3, Sentrin-specific protease 7 (Homo sapiens, UniProt Q9BQF6); format: functional;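 note: Luminescence-based dose-response confirmation of ultra-high-throughput screening hits, measuring inhibition of SENP7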
T3 sequence (Q9BQF6 whole entry): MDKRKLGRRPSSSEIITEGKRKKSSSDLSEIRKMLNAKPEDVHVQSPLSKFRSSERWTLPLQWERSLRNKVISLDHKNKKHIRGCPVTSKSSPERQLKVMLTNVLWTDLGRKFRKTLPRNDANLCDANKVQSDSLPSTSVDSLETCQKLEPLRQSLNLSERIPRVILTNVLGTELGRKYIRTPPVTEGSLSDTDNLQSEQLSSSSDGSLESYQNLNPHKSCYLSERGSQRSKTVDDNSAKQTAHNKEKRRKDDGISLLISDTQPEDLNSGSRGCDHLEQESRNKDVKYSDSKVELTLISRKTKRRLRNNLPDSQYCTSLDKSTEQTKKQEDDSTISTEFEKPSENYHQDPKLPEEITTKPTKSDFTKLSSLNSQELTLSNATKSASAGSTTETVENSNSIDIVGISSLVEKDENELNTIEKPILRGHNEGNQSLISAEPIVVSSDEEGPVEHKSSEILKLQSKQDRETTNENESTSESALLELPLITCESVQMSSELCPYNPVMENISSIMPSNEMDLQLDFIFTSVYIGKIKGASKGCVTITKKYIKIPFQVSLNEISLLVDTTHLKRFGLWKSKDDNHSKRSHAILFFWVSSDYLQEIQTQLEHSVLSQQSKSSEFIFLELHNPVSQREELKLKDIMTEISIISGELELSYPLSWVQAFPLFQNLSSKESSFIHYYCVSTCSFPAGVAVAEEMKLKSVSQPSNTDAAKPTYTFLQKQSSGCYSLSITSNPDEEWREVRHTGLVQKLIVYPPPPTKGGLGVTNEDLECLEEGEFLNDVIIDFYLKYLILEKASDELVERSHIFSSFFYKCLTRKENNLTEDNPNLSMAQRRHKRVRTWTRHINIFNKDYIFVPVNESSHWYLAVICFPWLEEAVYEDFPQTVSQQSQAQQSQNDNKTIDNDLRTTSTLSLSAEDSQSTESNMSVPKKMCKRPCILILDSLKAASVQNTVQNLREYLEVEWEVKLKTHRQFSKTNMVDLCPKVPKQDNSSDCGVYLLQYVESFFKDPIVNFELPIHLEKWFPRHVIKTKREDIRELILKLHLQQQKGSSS

[4] = tested on: H4; experiment: Luminescence Cell-Based Dose Response HTS to Identify Activators of 5'UTR Stem-Loop Driven Prion Protein mRNA Translation in H4 Neuroglioblastoma Cells. [Related pubchem assays: 1829 (Project Summary), 1814 (Primary HTS)]; format: functional; conditions: Homo sapiens
[5] = Luminescence Cell-Based Dose Confirmation HTS to Identify Activators of 5'UTR Stem-Loop Driven Alpha-Synuclein mRNA Translation in H4 Neuroglioblastoma Cells. [Related pubchem assays: 1829 (Project Summary), 1814 (Primary HTS)]; format: functional
[6] = molecular target: T4, Sentrin-specific protease 8 (Homo sapiens, UniProt Q96LD8); format: functional;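 note: luminescence read-out of SENP8 inhibition, dose-response confirmation following an ultra-high-throughput screen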
T4 sequence (Q96LD8 whole entry): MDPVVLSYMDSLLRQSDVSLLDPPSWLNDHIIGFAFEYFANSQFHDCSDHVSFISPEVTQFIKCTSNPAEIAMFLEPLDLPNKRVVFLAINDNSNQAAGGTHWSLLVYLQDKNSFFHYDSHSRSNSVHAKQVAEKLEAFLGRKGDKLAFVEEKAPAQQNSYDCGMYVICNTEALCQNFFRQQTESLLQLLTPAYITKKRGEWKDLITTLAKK

[7] = Luminescence Cell-Based Dose Response HTS to Identify Activators of Luciferase Translation or Activity in H4 […] Cells. [Related pubchem assays: 1829 (Project Summary), 1814 (Primary HTS)]; format: functional
[8] = molecular target: T5, Caspase-3 (Homo sapiens, UniProt P42574); format: functional;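 note: Dose-response selectivity test against caspase-3 for candidate inhibitors of sentrin-specific proteases (SENPs)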
T5 sequence (P42574 whole entry): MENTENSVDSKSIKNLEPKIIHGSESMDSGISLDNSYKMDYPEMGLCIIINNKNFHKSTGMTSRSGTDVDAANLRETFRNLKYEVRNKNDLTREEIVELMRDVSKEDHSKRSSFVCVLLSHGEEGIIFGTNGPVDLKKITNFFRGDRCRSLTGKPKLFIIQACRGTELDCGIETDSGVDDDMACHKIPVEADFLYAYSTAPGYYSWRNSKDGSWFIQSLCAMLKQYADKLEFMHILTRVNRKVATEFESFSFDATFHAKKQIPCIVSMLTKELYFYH

[9] = tested on: INS1; experiment: beta cell apoptosis inhibitors, cytokine rescue, dose response, luminescence, retest (AID 449756); format: functional, cell-based; conditions: Rattus norvegicus;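 note: cell death triggered by IL-1 beta plus TNF-alpha plus IFN-gamma mixture; protective hits raise ATP signal compared with cytokine alone wells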
[10] = molecular target: T6, Small ubiquitin-related modifier 1 (Homo sapiens, UniProt P63165); experiment: inhibitors of SUMO1 partner interactions, dose response, biochemical, FRET (AID 624383); format: functional; conditions: read-out: IC50_Mean
T6 sequence (P63165 whole entry): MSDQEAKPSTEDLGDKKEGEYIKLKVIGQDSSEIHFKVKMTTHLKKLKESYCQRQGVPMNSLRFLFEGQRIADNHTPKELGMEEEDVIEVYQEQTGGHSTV

[11] = molecular target: T6, Small ubiquitin-related modifier 1; experiment: inhibitors of SUMO1 peptide binding, dose response, biochemical, fluorescence polarization, uHTS hits (AID 624382); format: functional; conditions: read-out: IC50_Mean
[12] = molecular target: Induced myeloid leukemia cell differentiation protein Mcl-1 (Homo sapiens, UniProt Q07820); format: functional
Chain of Induced myeloid leukemia cell differentiation protein Mcl-1 (Q07820 whole entry, the tested form may be a part): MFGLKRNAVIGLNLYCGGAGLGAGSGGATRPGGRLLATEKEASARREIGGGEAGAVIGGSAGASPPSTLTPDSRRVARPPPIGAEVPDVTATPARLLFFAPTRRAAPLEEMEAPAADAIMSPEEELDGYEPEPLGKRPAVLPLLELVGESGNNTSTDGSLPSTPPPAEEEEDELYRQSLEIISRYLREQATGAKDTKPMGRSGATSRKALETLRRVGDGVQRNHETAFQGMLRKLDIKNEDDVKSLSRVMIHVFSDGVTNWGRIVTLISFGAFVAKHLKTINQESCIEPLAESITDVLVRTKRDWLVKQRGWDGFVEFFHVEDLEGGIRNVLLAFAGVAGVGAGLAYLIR

[13] = molecular target: T7, Carboxy-terminal domain RNA polymerase II polypeptide A small phosphatase 1 (Homo sapiens, UniProt Q9GZU7); experiment: inhibitors of CTDSP1, concentration-response testing, biochemical assay, absorbance-based, actives from ultra-high-throughput screening (AID 540297); format: functional
T7 sequence (Q9GZU7 whole entry): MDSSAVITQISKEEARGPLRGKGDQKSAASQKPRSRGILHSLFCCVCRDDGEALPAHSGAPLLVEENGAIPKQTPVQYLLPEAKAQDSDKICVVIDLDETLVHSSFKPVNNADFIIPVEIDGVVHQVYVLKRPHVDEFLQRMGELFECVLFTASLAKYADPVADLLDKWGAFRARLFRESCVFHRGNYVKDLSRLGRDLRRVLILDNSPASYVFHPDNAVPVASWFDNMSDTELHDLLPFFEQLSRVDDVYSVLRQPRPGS

[14] = molecular target: Fatty acid synthase (Homo sapiens, UniProt P49327); experiment: FAS thioesterase domain inhibitors, dose response, biochemical, kinetic fluorescence intensity (AID 624326); format: functional;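 note: rate of fluorescence rise from hydrolysis of a fluorogenic O-methyl fluorescein ester substrate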
Chain of Fatty acid synthase (P49327 whole entry, the tested form may be a part): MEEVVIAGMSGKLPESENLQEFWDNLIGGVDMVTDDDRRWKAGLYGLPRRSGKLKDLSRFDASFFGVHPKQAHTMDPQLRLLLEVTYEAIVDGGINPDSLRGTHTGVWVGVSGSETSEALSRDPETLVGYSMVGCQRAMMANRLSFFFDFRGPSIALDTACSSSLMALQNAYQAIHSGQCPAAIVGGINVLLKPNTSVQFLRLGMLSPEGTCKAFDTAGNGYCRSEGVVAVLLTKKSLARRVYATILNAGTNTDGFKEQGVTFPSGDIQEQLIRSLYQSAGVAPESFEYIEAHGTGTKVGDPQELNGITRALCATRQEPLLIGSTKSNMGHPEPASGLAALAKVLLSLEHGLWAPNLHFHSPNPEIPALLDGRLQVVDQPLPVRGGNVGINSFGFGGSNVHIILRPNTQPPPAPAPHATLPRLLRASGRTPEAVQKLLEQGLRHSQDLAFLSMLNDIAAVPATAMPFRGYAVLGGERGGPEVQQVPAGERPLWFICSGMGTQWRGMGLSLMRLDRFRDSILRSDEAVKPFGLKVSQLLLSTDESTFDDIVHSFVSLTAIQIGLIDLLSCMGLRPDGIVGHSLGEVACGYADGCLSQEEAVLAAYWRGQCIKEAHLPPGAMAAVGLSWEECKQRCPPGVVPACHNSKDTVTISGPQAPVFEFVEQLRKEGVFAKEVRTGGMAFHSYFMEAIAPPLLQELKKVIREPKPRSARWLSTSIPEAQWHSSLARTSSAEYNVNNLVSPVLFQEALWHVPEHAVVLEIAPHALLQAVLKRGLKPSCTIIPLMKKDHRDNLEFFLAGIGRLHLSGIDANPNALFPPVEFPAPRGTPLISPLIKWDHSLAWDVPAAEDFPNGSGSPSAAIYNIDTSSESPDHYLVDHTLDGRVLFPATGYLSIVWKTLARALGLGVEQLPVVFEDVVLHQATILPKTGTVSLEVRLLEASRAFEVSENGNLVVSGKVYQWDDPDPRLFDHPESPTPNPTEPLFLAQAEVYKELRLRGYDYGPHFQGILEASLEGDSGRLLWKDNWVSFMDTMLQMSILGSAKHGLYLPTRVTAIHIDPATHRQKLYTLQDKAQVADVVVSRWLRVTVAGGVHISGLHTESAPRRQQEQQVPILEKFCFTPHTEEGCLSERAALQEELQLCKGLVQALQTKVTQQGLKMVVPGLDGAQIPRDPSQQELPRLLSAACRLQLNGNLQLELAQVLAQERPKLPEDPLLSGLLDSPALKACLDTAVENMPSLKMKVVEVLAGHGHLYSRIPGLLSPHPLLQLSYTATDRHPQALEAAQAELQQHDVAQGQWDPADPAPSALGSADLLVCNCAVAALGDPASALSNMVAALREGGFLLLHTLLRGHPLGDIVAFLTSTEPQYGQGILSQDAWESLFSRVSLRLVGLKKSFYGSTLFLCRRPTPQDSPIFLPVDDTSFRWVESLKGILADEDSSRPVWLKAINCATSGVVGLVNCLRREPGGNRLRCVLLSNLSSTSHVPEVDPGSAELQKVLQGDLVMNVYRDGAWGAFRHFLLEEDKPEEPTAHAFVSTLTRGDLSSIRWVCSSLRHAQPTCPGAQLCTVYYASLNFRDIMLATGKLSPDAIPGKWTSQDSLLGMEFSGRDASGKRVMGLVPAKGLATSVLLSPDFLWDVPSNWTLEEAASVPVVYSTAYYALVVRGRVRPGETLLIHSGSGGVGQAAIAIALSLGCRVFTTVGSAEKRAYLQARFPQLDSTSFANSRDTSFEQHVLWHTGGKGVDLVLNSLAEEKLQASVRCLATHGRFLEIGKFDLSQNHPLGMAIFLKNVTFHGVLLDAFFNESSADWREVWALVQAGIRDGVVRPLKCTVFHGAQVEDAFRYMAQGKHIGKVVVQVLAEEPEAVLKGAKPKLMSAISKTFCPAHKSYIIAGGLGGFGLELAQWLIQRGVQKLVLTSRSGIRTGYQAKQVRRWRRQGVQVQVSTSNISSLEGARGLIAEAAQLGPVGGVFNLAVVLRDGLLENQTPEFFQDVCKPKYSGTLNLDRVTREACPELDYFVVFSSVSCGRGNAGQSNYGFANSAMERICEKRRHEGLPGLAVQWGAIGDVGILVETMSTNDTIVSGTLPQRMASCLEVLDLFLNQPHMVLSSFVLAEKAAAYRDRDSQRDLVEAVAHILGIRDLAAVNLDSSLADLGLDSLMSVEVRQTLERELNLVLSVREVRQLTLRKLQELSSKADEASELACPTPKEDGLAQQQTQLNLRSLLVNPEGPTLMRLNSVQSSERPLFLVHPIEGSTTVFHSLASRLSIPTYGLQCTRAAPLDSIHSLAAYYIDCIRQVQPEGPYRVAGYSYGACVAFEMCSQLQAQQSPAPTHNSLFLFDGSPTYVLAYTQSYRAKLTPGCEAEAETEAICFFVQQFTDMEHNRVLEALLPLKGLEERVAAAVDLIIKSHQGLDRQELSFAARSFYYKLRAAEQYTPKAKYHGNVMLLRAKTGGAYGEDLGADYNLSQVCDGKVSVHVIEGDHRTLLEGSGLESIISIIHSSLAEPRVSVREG

O=C(Nc1nccs1)c1ccc(-c2ccccc2Cl)o1
IC50 [1]: > 100 µM (inactive)
IC50 [2]: > 100 µM (inactive)
IC50 [3]: 4.57 µM (active)
EC50 [4]: 23.5 µM (inconclusive)
EC50 [5]: 27 µM (active)
IC50 [6]: 25.1 µM (active)
EC50 [7]: 106 µM (active)
IC50 [8]: 22 µM (active)

O=C(Nc1ccc(Nc2ccncc2)cc1)c1ccc(Nc2ccnc3ccc([N+](=O)[O-])cc23)cc1[N+](=O)[O-]
AC50 [9]: 10.5 µM (active)
IC50 [10]: 10.3 µM (active)
IC50 [11]: > 66.6 µM (inactive)
IC50 [12]: 2.46 µM (active)

CCc1ccc(OCC(=O)NNC(=O)c2ccc(NC(=O)C3CC3)cc2)cc1
IC50 [13]: 10.5 µM (active)

O=C(CCN1C(=O)/C(=C/c2ccc(Cl)cc2)SC1=S)Nc1ccc(C(=O)O)cc1
IC50 [13]: 2.64 µM (active)

O=C(CCCc1ccccc1)c1ccccc1
IC50 [1]: 20.4 µM (active)
IC50 [3]: 7.31 µM (active)
IC50 [6]: 54.9 µM (active)
IC50 [8]: 13.5 µM (active)

O=C(OCc1ccc([N+](=O)[O-])cc1)c1cc([N+](=O)[O-])ccc1N1CCOCC1
IC50 [14]: 2.73 µM (active)
